# Experimental data: ChEMBL document CHEMBL4152229, “Synthesis and biological evaluation of 2,6-disubstituted-9H-purine, 2,4-disubstitued-thieno[3,2-d]pyrimidine and -7H-pyrrolo[2,3-d]pyrimidine analogues as novel CHK1 inhibitors” (Eur J Med Chem, 2018)
# Experiments:
# HT-29 [1] = experiment: Cell cycle arrest in human HT-29 cells assessed as accumulation at G2 phase at 10 uM after 48 hrs by propidium iodide/RNase staining-based flow cytometric analysis (reference value: 7.0%); type: functional
# HT-29 [2] = experiment: Cell cycle arrest in human HT-29 cells assessed as accumulation at G1 phase at 10 uM after 48 hrs by propidium iodide/RNase staining-based flow cytometric analysis (reference value: 62.1%); type: functional
# HT-29 [3] = experiment: Potentiation of gemcitabine-induced cell cycle arrest in human HT-29 cells assessed as accumulation at G2 phase at 10 uM after 48 hrs by propidium iodide/RNase staining-based flow cytometric analysis (reference value: 62.1%); type: functional
# HT-29 [4] = experiment: Potentiation of gemcitabine-induced cell cycle arrest in human HT-29 cells assessed as accumulation at S phase at 10 uM after 48 hrs by propidium iodide/RNase staining-based flow cytometric analysis (reference value: 62.1%); type: functional
# [5] = molecular target: Cyclin-dependent kinase 2 (Homo sapiens) (UniProt P24941); experiment: Inhibition of DNA-tagged CDK2 (unknown origin) expressed in HEK293 cells at 10 uM after 1 hr by real-time fluorescent quantitative PCR analysis; type: cell-based
# HT-29 [6] = experiment: cells; settings: Homo sapiens, HT-29, 72 h
# Description: Antiproliferative activity against human HT-29 cells after 72 hrs by MTS assay
# [7] = molecular target: Tyrosine-protein kinase BTK (Homo sapiens) (UniProt Q06187); experiment: Inhibition of DNA-tagged BTK (unknown origin) expressed in HEK293 cells at 10 uM after 1 hr by real-time fluorescent quantitative PCR analysis; type: cell-based
# [8] = molecular target: ALK tyrosine kinase receptor (Homo sapiens) (UniProt Q9UM73); experiment: Inhibition of DNA-tagged ALK (unknown origin) expressed in HEK293 cells at 10 uM after 1 hr by real-time fluorescent quantitative PCR analysis; type: cell-based
# [9] = molecular target: T1, Ephrin type-B receptor 4 (Homo sapiens) (UniProt P54760); experiment: Inhibition of DNA-tagged EPHB4 (unknown origin) expressed in HEK293 cells at 10 uM after 1 hr by real-time fluorescent quantitative PCR analysis; type: cell-based
# T1 sequence (whole entry): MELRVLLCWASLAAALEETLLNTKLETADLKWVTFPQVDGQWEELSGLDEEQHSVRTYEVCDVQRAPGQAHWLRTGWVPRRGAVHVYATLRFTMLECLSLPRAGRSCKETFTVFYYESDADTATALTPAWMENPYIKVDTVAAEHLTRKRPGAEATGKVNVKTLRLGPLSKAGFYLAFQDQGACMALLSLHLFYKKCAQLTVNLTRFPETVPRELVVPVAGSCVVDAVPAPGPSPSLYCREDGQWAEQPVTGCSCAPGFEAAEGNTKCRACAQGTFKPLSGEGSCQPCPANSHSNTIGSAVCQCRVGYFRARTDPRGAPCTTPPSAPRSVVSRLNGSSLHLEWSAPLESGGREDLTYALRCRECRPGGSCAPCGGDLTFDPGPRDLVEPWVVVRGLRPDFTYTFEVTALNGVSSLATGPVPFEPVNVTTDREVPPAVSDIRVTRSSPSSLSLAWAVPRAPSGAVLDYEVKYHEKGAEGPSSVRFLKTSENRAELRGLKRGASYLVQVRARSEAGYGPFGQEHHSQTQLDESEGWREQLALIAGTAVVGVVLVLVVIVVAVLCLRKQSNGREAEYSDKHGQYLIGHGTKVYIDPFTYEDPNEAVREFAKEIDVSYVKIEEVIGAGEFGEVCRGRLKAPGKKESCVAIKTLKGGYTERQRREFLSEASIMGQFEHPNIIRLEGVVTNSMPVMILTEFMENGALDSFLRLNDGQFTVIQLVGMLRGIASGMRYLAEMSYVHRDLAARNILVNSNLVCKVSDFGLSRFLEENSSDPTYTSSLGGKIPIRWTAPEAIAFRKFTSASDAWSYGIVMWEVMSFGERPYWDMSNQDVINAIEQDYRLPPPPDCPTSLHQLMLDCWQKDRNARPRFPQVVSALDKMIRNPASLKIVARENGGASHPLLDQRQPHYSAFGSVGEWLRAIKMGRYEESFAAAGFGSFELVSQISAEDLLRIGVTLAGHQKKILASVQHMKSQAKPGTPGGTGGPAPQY
# Chain of ALK tyrosine kinase receptor (Homo sapiens) (Q9UM73 19-1620 limits assumed): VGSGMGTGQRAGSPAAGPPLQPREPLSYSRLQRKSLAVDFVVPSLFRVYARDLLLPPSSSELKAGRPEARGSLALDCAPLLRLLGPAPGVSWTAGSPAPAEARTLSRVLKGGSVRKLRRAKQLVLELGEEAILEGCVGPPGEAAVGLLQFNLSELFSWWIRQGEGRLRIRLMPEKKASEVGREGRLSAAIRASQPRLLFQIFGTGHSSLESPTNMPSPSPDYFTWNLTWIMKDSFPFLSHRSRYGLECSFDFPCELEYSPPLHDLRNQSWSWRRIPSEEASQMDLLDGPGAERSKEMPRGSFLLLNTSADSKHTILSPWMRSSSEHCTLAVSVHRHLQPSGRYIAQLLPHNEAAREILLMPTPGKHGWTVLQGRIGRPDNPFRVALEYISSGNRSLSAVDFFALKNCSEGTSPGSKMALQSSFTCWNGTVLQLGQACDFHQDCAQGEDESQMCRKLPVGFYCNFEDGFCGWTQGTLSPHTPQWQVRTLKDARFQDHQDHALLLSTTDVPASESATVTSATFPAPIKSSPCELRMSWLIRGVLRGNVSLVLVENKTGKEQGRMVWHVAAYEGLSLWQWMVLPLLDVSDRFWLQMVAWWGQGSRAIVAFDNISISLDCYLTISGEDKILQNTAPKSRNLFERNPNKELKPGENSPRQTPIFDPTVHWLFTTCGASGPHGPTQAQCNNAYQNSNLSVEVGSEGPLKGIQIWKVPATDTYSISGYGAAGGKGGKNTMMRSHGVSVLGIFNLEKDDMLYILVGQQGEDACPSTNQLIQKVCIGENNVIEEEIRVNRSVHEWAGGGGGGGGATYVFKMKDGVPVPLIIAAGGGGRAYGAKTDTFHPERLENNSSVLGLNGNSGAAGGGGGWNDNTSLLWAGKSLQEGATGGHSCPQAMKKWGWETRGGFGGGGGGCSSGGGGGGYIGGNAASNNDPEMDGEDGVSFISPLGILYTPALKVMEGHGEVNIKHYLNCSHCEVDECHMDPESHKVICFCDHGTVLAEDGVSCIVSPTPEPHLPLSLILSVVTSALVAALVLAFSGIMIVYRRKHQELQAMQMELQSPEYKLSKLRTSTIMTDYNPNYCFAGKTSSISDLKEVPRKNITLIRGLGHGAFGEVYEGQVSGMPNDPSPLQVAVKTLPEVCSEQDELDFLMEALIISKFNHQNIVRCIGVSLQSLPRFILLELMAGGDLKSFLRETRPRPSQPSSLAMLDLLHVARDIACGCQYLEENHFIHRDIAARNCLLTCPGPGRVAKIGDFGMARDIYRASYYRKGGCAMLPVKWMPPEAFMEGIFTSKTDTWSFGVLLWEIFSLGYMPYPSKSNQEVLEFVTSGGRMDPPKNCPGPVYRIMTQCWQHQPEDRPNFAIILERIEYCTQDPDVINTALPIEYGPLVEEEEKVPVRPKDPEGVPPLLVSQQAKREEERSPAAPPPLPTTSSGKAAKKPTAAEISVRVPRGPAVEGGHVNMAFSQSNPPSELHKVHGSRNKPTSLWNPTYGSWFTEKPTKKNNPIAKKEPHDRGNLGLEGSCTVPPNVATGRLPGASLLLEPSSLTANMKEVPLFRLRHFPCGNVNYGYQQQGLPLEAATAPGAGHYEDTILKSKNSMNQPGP
# Chain of Tyrosine-protein kinase BTK (Homo sapiens) (Q06187 whole entry): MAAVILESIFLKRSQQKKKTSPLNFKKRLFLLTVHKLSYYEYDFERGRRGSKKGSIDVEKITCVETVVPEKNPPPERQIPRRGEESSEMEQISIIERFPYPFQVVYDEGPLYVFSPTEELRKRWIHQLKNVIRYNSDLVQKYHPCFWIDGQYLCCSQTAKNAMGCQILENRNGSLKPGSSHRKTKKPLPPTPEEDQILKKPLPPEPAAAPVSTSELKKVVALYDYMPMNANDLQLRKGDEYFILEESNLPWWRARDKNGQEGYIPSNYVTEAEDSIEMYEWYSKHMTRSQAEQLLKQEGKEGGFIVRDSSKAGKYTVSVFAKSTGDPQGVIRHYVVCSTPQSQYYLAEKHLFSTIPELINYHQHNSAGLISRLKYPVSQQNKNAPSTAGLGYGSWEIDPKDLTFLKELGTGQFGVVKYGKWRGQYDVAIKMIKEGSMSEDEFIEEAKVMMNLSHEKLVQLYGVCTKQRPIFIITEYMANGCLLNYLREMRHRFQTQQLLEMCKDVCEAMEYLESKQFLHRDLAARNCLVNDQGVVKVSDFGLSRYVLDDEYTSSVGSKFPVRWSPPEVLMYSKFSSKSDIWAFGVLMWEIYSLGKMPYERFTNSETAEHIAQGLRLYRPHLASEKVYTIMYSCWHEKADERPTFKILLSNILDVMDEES
structure (smiles),measurement,setting,value
Fc1ccc(Nc2nc(N3CCOCC3)c3nc[nH]c3n2)cc1,Activity,HT-29 [1],10.5%
same,Activity,HT-29 [2],60%
same,Activity,HT-29 [3],25.2%
same,Activity,HT-29 [4],61%
same,inhibition,[5],73%
same,GI50,HT-29 [6],> 100 µM
same,inhibition,[7],35%
same,inhibition,[8],1%
same,inhibition,[9],23%
